For 43 molecules, Ki results are on record in US7790721B2, “Pyrroloquinoxalinone inhibitors of poly(ADP-ribose)polymerase” (Abbott Laboratories, priority 2006, dated 2010).

Usually Ki stands for a dissociation constant, usually derived from enzyme kinetics or from competition with a known ligand.

Some results are limits rather than exact numbers.

The target in one assay is T1, PARP-1 (Homo sapiens, UniProt P09874).
T1 construct: purchased Trevigen (Gaithersburg, Md.); host or cells: E. coli
T1 sequence (P09874 whole entry): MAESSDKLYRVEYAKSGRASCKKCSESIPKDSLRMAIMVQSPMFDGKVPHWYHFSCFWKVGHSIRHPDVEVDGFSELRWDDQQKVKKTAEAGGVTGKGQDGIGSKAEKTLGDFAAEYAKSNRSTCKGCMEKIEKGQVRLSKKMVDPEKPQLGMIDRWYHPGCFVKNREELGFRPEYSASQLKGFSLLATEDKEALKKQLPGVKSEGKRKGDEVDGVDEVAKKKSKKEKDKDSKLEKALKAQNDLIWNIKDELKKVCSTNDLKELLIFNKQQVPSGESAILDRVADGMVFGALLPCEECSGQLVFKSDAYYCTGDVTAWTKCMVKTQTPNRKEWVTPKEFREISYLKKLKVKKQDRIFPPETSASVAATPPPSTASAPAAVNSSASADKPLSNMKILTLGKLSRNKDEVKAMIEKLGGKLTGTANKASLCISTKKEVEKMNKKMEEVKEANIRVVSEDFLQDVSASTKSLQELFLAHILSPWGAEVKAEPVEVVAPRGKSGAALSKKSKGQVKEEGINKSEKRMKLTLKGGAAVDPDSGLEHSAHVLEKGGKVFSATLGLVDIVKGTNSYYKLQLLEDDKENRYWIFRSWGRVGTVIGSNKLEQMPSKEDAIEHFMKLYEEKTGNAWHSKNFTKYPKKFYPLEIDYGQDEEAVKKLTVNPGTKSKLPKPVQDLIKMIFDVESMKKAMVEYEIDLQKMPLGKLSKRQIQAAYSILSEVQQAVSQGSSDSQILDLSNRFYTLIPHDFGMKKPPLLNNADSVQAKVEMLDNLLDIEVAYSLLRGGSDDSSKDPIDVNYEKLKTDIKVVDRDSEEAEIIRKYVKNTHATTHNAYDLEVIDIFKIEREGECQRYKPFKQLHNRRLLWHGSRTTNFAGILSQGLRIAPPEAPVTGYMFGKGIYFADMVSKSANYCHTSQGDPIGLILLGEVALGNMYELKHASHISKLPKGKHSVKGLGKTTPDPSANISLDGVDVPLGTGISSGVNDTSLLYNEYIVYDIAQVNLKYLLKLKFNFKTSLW
In words: PARP1 assay (inhibition of PARP, [3H]-NAD+ / biotinylated histone H1, FlashPlate scintillation). The format is biochemical.
Settings: not given
Regarding `O=c1[nH]c2cc(CNCc3ccccc3)ccc2n2cccc12` [Example 11, 7-((benzylamino)methyl)pyrrolo[1,2-a]quinoxalin-4(5H)-one], affinity was put at a Ki of 0.127 µM.

Still in this assay, the particulars now being: recombinant human PARP, 1 nM enzyme, 1.5 μM [3H]-NAD+; inhibition curves at various substrate concentrations; read-out: PARP-1 (Ki).
Turning to `CS(=O)(=O)N(Cc1ccc2c(c1)[nH]c(=O)c1cccn12)C1CC1` [Example 56, N-cyclopropyl-N-[(4-oxo-4,5-dihydropyrrolo[1,2-a]quinoxalin-7-yl)methyl]methanesulfonamide], the inhibition constant Ki is 0.909 µM.
Regarding `CCN1CCCC(NC(=O)c2ccc3c(c2)[nH]c(=O)c2cccn23)C1` (stereo not shown) [Example 80, N-(1-ethylpiperidin-3-yl)4-oxo-4,5-dihydropyrrolo[1,2-a]quinoxaline-7carboxamide], the inhibition constant Ki is 0.113 µM.
The same measure, in the same setting: next, `CN(Cc1ccc2c(c1)NC(=O)C1CCCN21)C1CCCCC1` (stereo not shown) [Example 47, 7-{[cyclohexyl(methyl)amino]methyl}-1,2,3,3a-tetrahydropyrrolo[1,2-a]quinoxalin-4(5H)-one]: 2.16 µM; `O=c1[nH]c2cc(CNC3CCC3)ccc2n2cccc12` [Example 3, 7-((cyclobutylamino)methyl)pyrrolo[1,2-a]quinoxalin-4(5H)-one]: 0.083 µM.
With `O=C1NCc2cc(CNC3CCCCC3)ccc2-n2cccc21` [Example 58, 8-[(cyclohexylamino)methyl]-5,6-dihydro-4H-pyrrolo[1,2-a][1,4]benzodiazepin4-one], the inhibitory constant (Ki) is 1.44 µM.
Same read-out and setting: next, `O=C(O)CNCc1ccc2c(c1)[nH]c(=O)c1cccn12` [Example 60, N-[(4-oxo-4,5-dihydropyrrolo[1,2-a]quinoxalin-7-yl)methyl]glycine]: 0.318 µM.
Take `COC(=O)CNCc1ccc2c(c1)[nH]c(=O)c1cccn12` [Example 59, Methyl N-[(4-oxo4,5-dihydropyrrolo[1,2-a]quinoxalin-7-yl)methyl]glycinate]: the Ki came to 0.534 µM.
Regarding `O=C1NCc2cc(CN3CCCCC3)ccc2-n2cccc21` [Example 57, 8-(piperidin-1-ylmethyl)-5,6-dihydro-4H-pyrrolo[1,2-a][1,4]benzodiazepin4-one], the inhibition constant (Ki) was 1.14 µM.
As for `CN(C)C(=O)c1ccc2c(c1)[nH]c(=O)c1cccn12` [Example 79, N,N-dimethyl-4-oxo-4,5-dihydropyrrolo[1,2-a]quinoxaline-7-carboxamide], the Ki came out at 0.615 µM.
The same measure, in the same setting: next, `O=C(c1ccc2c(c1)[nH]c(=O)c1cccn12)N1CCCNCC1` [Example 88, 7-(1,4-diazepan-1-ylcarbonyl)pyrrolo[1,2-a]quinoxalin-4(5H)-one]: 8.69 µM; `O=c1[nH]c2cc(CNCCN3CCCCC3)ccc2n2cccc12` [Example 71, 7-{[(2-piperidin-1-ylethyl)amino]methyl}pyrrolo[1,2-a]quinoxalin-4(5H)-one]: 0.182 µM.
`CC(C)N(C)Cc1ccc2c(c1)NC(=O)C1CCCN21` (stereo not shown) [Example 50, 7-{[isopropyl(methyl)amino]methyl}-1,2,3,3a-tetrahydropyrrolo[1,2-a]quinoxalin-4(5H)-one]: the inhibition constant (Ki) stood at 1.96 µM.
Still for that read-out and setting: next, `CN(C)C1CCC(NC(=O)c2ccc3c(c2)[nH]c(=O)c2cccn23)CC1` (stereo not shown) [Example 74, N-[4-(dimethylamino)cyclohexyl]-4-oxo4,5-dihydropyrrolo[1,2-a]quinoxaline-7-carboxamide]: 0.776 µM.
Same read-out and setting: next, `CN1CCN(Cc2ccc3c(c2)NC(=O)C2CCCN32)CC1` (stereo not shown) [Example 48, 7-[(4-methylpiperazin-1-yl)methyl]-1,2,3,3a-tetrahydropyrrolo[1,2-a]quinoxalin-4(5H)-one]: greater than 9.5 µM; `O=C1NCc2cc(CNC3CCCC3)ccc2-n2cccc21` [Example 33, 8-((cyclopentylamino)methyl)-5,6-dihydro-4H-pyrrolo[1,2-a][1,4]benzodiazepin-4-one]: 0.554 µM; `O=C(CNCc1ccc2c(c1)[nH]c(=O)c1cccn12)N1CCCC1` [Example 76, 7-((2-oxo-2-(pyrrolidin-1-yl)ethylamino)methyl)pyrrolo[1,2-a]quinoxalin-4(5H)-one]: 0.149 µM.
As to `O=c1[nH]c2cc(CNC3CCCC3)ccc2n2cccc12` [Example 4, 7-((cyclopentylamino)methyl)pyrrolo[1,2-a]quinoxalin-4(5H)-one], the Ki was determined as 0.179 µM.
The same measure, in the same setting: next, `O=C(Nc1cccc(S(=O)(=O)N2CCCCC2)c1)c1ccc2c(c1)[nH]c(=O)c1cccn12` [Example 75, 4-oxo-N-[3-(piperidin-1-ylsulfonyl)phenyl]4,5-dihydropyrrolo[1,2-a]quinoxaline-7-carboxamide]: 1.64 µM; “8-(((2-ethoxyethyl)(methyl)amino)methyl)-5,6-dihydro-4H-pyrrolo[1,2-a][1,4]benzodiazepin-4-one [Example 30]”: 2.65 µM.
As for `O=c1[nH]c2cc(CN3CCOCC3)ccc2n2ccnc12` [Example 25, 7-(morpholin4-ylmethyl)imidazo[1,2-a]quinoxalin-4(5H)-one], the Ki was determined as 2.85 µM.
Take `O=c1[nH]c2cc(CN3CCCCC3)ccc2n2ccnc12` [Example 22, 7-(piperidin-1-ylmethyl)imidazo[1,2-a]quinoxalin-4(5H)-one]: the inhibition constant Ki is 0.33 µM.
For the molecule `CN(C)Cc1ccc2c(c1)[nH]c(=O)c1nccn12` [Example 23, 7-((dimethylamino)methyl)imidazo[1,2-a]quinoxalin-4(5H)-one], the inhibition constant (Ki) came out at 0.519 µM.
Same read-out and setting: next, `CS(=O)(=O)N(Cc1ccc2[nH]c(=O)c3cccn3c2c1)C1CC1` [Example 51, N-cyclopropyl-N-[(4-oxo4,5-dihydropyrrolo[1,2-a]quinoxalin-8-yl)methyl]methanesulfonamide]: 0.779 µM; `O=c1[nH]c2cc(CNCC3CCCCC3)ccc2n2cccc12` [Example 2, 7-(((cyclohexylmethyl)amino)methyl)pyrrolo[1,2-a]quinoxalin-4(5H)-one]: 0.091 µM; `O=c1[nH]c2ccc(CNC3CCCCC3)cc2n2cccc12` [Example 8, 8-((cyclohexylamino)methyl)pyrrolo[1,2-a]quinoxalin-4(5H)-one]: 0.099 µM.
`O=c1[nH]c2ccc(CNC3CCCC3)cc2n2cccc12` [Example 18, 8-((cyclopentylamino)methyl)pyrrolo[1,2-a]quinoxalin-4(5H)-one]: the inhibition constant Ki came to 0.079 µM.
On to `NC1CCN(C(=O)c2ccc3c(c2)[nH]c(=O)c2cccn23)CC1` [Example 87, 7-[(4-aminopiperidin-1-yl)carbonyl]pyrrolo[1,2-a]quinoxalin-4(5H)-one], for which the inhibition constant Ki turned out to be 0.077 µM.
In the case of `O=c1[nH]c2cc(CNCC3CCCCC3)ccc2n2ccnc12` [Example 24, 7-(((cyclohexylmethyl)amino)methyl)imidazo[1,2-a]quinoxalin-4(5H)-one], the inhibition constant Ki was 5.18 µM.
As to `CC(=O)N(Cc1ccc2c(c1)[nH]c(=O)c1cccn12)C1CCC1` [Example 55, N-cyclobutyl-N-[(4-oxo-4,5-dihydropyrrolo[1,2-a]quinoxalin-7-yl)methyl]acetamide], the Ki stood at 1.5 µM.
The same measure, in the same setting: next, `O=c1[nH]c2ccc(CNCC3CCCCC3)cc2n2cccc12` [Example 9, 8-(((cyclohexylmethyl)amino)methyl)pyrrolo[1,2-a]quinoxalin-4(5H)-one]: 0.206 µM; `CN(Cc1ccccc1)Cc1ccc2c(c1)NC(=O)C1CCCN21` (stereo not shown) [Example 49, 7-{[benzyl(methyl)amino]methyl}-1,2,3,3a-tetrahydropyrrolo[1,2-a]quinoxalin-4(5H)-one]: 1.35 µM.
Regarding `O=C(NCCCCc1ccccc1)c1ccc2c(c1)[nH]c(=O)c1cccn12` [Example 81, 4-oxo-N-(4-phenylbutyl)-4,5-dihydropyrrolo[1,2-a]quinoxaline-7-carboxamide], the Ki is 0.094 µM.
On the same count and under the same terms, next, `O=C1NCc2cc(CNCc3ccccc3)ccc2-n2cccc21` [Example 32, 8-((benzylamino)methyl)-5,6-dihydro-4H-pyrrolo[1,2-a][1,4]benzodiazepin-4-one]: 0.809 µM; `O=C1CCCN1Cc1ccc2c(c1)[nH]c(=O)c1cccn12` [Example 52, 7-[(2-oxopyrrolidin-1-yl)methyl]pyrrolo[1,2-a]quinoxalin-4(5H)-one]: 0.698 µM.
Same read-out and setting: next, `CC(C)N(Cc1ccc2[nH]c(=O)c3cccn3c2c1)S(=O)(=O)c1ccccc1` [Example 54, N-isopropyl-N-[(4-oxo-4,5-dihydropyrrolo[1,2-a]quinoxalin-8-yl)methyl]benzenesulfonamide]: 0.635 µM.
For the molecule `CN1CCN(Cc2ccc3c(c2)NC(=O)C2CCCCN32)CC1` (stereo not shown) [Example 42, 3-[(4-methylpiperazin-1-yl)methyl]-7,8,9,10-tetrahydro-5H-pyrido[1,2-a]quinoxalin-6(6aH)-one], the inhibition constant (Ki) amounted to 7.79 µM.
The same measure, in the same setting: next, `CN(Cc1ccc2c(c1)NC(=O)C1CCCCN21)C1CCCCC1` (stereo not shown) [Example 40, 3-{[cyclohexyl(methyl)amino]methyl}-7,8,9,10-tetrahydro-5H-pyrido[1,2-a]quinoxalin-6(6aH)-one]: 1.5 µM; `O=C(NCC(=O)N1CCOCC1)c1ccc2c(c1)[nH]c(=O)c1cccn12` [Example 64, N-(2-morpholino-2-oxoethyl)-4-oxo-4,5-dihydropyrrolo[1,2-a]quinoxaline-7-carboxamide]: 0.369 µM; `O=C(NCCN1CCSCC1)c1ccc2c(c1)[nH]c(=O)c1cccn12` [Example 78, 4-oxo-N-(2-thiomorpholin-4-ylethyl)-4,5-dihydropyrrolo[1,2-a]quinoxaline-7-carboxamide]: 0.086 µM.
Regarding `CCN(C)Cc1ccc2c(c1)NC(=O)C1CCCCN21` (stereo not shown) [Example 39, 3-{[ethyl(methyl)amino]methyl}-7,8,9,10-tetrahydro-5H-pyrido[1,2-a]quinoxalin-6(6aH)-one], the Ki was 0.071 µM.
On to `O=c1[nH]c2ccc(CNCCc3ccccc3)cc2n2cccc12` [Example 14, 8-(((2-phenylethyl)amino)methyl)pyrrolo[1,2-a]quinoxalin-4(5H)-one], for which the Ki was 0.098 µM.
For `O=c1[nH]c2ccc(CN3CCOCC3)cc2n2cccc12` [Example 17, 8-(morpholin-4-ylmethyl)pyrrolo[1,2-a]quinoxalin-4(5H)-one], the inhibitory constant (Ki) was 0.13 µM.
